# Experiments:
# MDA-MB-231 cells [1] = test: Clonogenic growth assay; type: cell-based; conditions: Homo sapiens; MDA-MB-231, 48 h treatment then 12 days in fresh media
# Description: (§1) For clonogenic assays, cells were treated with compound for 48 h, media were removed and replaced with fresh media for a further 12 days to measure colony formation. For cell viability assays, lymphoma cells were plated at 20,000 cells in 200 μl per well in U-bottom 96 well plates in RPMI medium +20 % FCS. Cells were re-suspended 48 h later, diluted 10-fold in PBS + propidium iodide (PI) and the concentration of PI negative cells was counted using an Attune flow cytometer with autosampler. Breast cancer cells were seeded at a density of 10,000 cells/well in a sterile 96 clear-well plate with 150 μl of DMEM (+10 % FCS and 2 mM L-Glutamine). Each compound treatment was performed in triplicate for 72 h at concentrations of 100 nM and 1, 5, 10 and 50 μM in 100 μl of full-medium. After 72 h, 20 μl of MTT solution (3 mg of MTT Formazan, Sigma/1 ml PBS) was added to the medium and incubated for 4 h at 37 °C in a CO2 incubator. The MTT-product was solubilised with 100 μl DMSO, and for 1 h, incubated in the dark at room temperature. The optical density was read at 570 nm with PHERAstar.
# KRT17 = test: qRT-PCR of KRT17 mRNA in MDA-MB-231 cells; type: cell-based; conditions: for fold induction at 10 µM: MDA-MB-231, single dose 10 μM; for Change in KRT17 mRNA level: MDA-MB-231, 48 h, single agents 1–15 μM, combination UNC0638 at 7.5 μM with increasing doses of GSK343
# Description: (§2) Following compound treatment of MDA-MB-231 for 48 h (in 6-well plates), media was removed and 1.5 ml of TRIzol (Invitrogen) was added directly to lyse cells and RNA was isolated according to the manufacturer’s instructions. Reverse transcription was done using the SuperScript III First-Strand Synthesis System (Invitrogen) according to the manufacturer’s instructions. Each measurement was done in triplicate, and the List of Primers can be found in Additional file 2: Table S1. For normalisation, we have used GAPDH and RNA pol II. Experiments were also done with the ‘Fast Sybr Green Cell-to-CT™-Kit’ according to the manufacturer’s instructions (Applied Biosystem). Fifteen thousand cells per 96 well were plated, and after 24 h, treated with compounds at various concentrations.
# (§3) For qRT-PCR measurements the 2x iQ SYBR Green Supermix (Bio-Rad), 200nM Primers and 0.4μl of cDNA /per 20μl reaction was used. The measurement was done in low-white 96-well plates (Bio-Rad) on a CFX96 Real-time System/C1000 Thermal Cycler (Bio-Rad) with the following protocol: 95°C for 3’; 95°C for 10’’, 56°C for 10’’, 72°C for 30’’ 42 cycles followed by a melting curve from 72°C to 95°C.
# JMJD3 = test: qRT-PCR of JMJD3 mRNA in MDA-MB-231 cells; type: cell-based; conditions: for fold induction at 10 µM: MDA-MB-231, single dose 10 μM; for Change in JMJD3 mRNA level: MDA-MB-231, 48 h, single agents 1–15 μM, combination UNC0638 at 7.5 μM with increasing doses of GSK343
# Description: as §2, §3
# MDA-MB-231 cells [2] = test: MTT cell viability assay; type: cell-based; conditions: for IC50: Homo sapiens
# Description: Fig. 1 MTT and mRNA levels in MDA-MB-231 cells after pharmacological inhibition and siRNA knockdown of EZH2 and EHMT2(G9a), individually and in combination. a Expression levels of KRT17, FBX032, JMJD3, EZH2, SPINK1 and EHMT2 were measured by qRT-PCR in the MDA-MB-231 cell line 48 h after transfection with siRNAs targeting EZH2 and EHMT2, both individually and in combination. All measurements were normalised to the fold-change (relative to GAPDH) in the mock transfection control. Error bars represent the mean ± SD of experiment performed in technical triplicate. b Expression levels of KRT17, FBX032, JMJD3 and SPINK1 were measured by qRT-PCR in the MDA-MB-231 cell line treated for 48 h with GSK343, UNC0638, and UNC0638 (at 7.5 μM) with increasing doses of GSK343. Each group has been compared to the untreated sample following normalisation to GAPDH. Error bars represent the mean ± SD of experiment performed in technical triplicate. c MTT assay for cell viability of MDA-MB-231 cells after treatment. MDA-MB-231 cells were seeded in 96 well plates. After 24 h, increasing doses of GSK343, UNC0638 or combination treatments (1, 2.5, 5, 7.5, 10 and 15 μM) were added to cells. Control was media with 0.5 % DMSO. Cell viability was measured by MTT assay after a 48-h treatment and a 24-h proliferation period. Error bars represent the mean ± SEM of five independent repeats
# as §1
# FBXO32 = test: qRT-PCR of FBXO32 mRNA in MDA-MB-231 cells; type: cell-based; conditions: for fold induction at 10 µM: MDA-MB-231, single dose 10 μM; for Change in FBXO32 mRNA level: MDA-MB-231, 48 h, single agents 1–15 μM, combination UNC0638 at 7.5 μM with increasing doses of GSK343
# Description: as §2, §3
# EZH2 [3] = test: qRT-PCR of EZH2 mRNA in MDA-MB-231 cells; type: cell-based; conditions: Homo sapiens, 48 h, normalised against GAPDH, read-out: EZH2 RNA level, fold increase compared to the mock treated sample; for fold induction at 10 µM: MDA-MB-231, single dose 10 μM
# Description: as §2, §3
# H3K27me3 and H3K9me3 = test: Western analysis of global histone marks in MDA-MB-231 cells; type: cell-based; conditions: range of doses
# Description: MDA-MB-231 cells seeded in 6 well plates at a cell density of 3 x 10^5 were treated with HKMTI-1-005 (1–7.5uM) for 48 h. Following lysis in Triton Extraction Buffer (TEB, PBS containing 0.5 % Triton ×100 (v/v), 1/1000 protease inhibitor), nuclei were re-suspended in 0.2 N HCL at a density of 4 x 10^7 nuclei per millilitre and incubated overnight at 4 °C to acid-extract the histones, before being centrifuged at 6500g for 10 min at 4 °C. Protein concentration was determined using the Bradford assay. H3K27me3, H3K9me3, H3K9me2, H3K9me and total H3 protein expression levels in the histone extract samples were determined using Western blot analysis using H3K27me3 (1:1000; Abcam), H3K9me3 (1:1000; Abcam), H3K9me (1:1000) and H3 (1:2000; Abcam) antibodies. After washing, the membrane was incubated with a horseradish peroxidase-labelled secondary antibody (1 h, room temperature). The membrane was incubated for 1 min with 5 mL of Pierce ECL Western blotting substrate (Thermo Scientific). Images were captured using Konica Minolta SRX101A Tabletop X-Ray film processor.
# SC1 = test: Lymphoma cell growth, cell counting following propidium iodide staining; type: cell-based; conditions: Homo sapiens, SC-1, EZH2 W.T., 48 h, PI negative cell count
# Description: as §1
# DOHH2 = test: as above; type: cell-based; conditions: Homo sapiens, DOHH-2, EZH2 W.T., 48 h, PI negative cell count
# Description: as §1
# WILL1 = test: as above; type: cell-based; conditions: WILL-1, EZH2 W.T., 48 h, PI negative cell count
# Description: as §1
# WSU-FSCLL = test: as above; type: cell-based; conditions: EZH2 W.T., 48 h, PI negative cell count
# Description: as §1
# SUDLH8 = test: as above; type: cell-based; conditions: EZH2 W.T. (amplified), 48 h, PI negative cell count
# Description: as §1
# DB = test: as above; type: cell-based; conditions: Homo sapiens, EZH2 Mutant Y646N, 48 h, PI negative cell count
# Description: as §1
# SPINK1 = test: qRT-PCR of SPINK1 mRNA in MDA-MB-231 cells; type: cell-based; conditions: for Change in SPINK1 mRNA level: MDA-MB-231, 48 h, single agents 1–15 μM, combination UNC0638 at 7.5 μM with increasing doses of GSK343; for SPINK1 expression upon treatment: MDA-MB-231, multiple doses and time points
# Description: as §2, §3
# [4] = biological target: trimeric PRC2 complex (EZH2:EED:SUZ12) (Homo sapiens, UniProt O75530+Q15022+Q15910); test: PRC2 enzymatic assay (SPA-type), biotinylated-H3 (21–44) peptide substrate; type: biochemical; conditions: EZH2:EED:SUZ12, biotinylated-H3 (21–44) peptide substrate
# trimeric PRC2 complex (EZH2:EED:SUZ12), sequence (Q15910 whole entry): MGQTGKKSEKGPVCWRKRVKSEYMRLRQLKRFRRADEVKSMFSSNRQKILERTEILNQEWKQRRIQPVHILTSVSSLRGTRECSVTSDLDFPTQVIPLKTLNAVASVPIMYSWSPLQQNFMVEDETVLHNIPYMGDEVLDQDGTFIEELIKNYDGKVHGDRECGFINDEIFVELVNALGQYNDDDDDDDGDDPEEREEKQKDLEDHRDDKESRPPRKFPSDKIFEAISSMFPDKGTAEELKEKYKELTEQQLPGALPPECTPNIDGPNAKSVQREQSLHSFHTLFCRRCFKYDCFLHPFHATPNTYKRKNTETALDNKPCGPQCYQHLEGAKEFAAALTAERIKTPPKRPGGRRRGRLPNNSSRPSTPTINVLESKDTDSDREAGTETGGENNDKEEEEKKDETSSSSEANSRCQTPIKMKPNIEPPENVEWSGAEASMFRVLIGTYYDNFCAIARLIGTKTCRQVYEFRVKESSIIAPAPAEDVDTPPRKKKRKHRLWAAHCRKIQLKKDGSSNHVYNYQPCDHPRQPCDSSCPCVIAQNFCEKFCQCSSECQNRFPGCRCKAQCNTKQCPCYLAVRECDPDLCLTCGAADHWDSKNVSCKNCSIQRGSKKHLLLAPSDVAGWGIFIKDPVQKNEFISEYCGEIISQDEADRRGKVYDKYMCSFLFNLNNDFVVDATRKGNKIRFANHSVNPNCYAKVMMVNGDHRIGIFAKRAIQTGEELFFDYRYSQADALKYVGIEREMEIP
# trimeric PRC2 complex (EZH2:EED:SUZ12), sequence (O75530 whole entry partner): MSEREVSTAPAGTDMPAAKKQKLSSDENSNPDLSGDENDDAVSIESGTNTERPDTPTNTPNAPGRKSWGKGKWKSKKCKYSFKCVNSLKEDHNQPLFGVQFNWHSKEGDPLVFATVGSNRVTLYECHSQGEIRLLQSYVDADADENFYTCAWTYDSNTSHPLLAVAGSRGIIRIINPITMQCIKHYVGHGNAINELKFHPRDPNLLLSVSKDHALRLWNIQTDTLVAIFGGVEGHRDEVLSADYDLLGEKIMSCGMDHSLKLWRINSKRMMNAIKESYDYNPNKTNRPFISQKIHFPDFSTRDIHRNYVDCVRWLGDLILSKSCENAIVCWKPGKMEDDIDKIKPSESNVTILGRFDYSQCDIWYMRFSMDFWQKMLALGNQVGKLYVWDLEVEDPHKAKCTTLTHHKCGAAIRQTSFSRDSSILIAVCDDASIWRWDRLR
# trimeric PRC2 complex (EZH2:EED:SUZ12), sequence (Q15022 whole entry partner): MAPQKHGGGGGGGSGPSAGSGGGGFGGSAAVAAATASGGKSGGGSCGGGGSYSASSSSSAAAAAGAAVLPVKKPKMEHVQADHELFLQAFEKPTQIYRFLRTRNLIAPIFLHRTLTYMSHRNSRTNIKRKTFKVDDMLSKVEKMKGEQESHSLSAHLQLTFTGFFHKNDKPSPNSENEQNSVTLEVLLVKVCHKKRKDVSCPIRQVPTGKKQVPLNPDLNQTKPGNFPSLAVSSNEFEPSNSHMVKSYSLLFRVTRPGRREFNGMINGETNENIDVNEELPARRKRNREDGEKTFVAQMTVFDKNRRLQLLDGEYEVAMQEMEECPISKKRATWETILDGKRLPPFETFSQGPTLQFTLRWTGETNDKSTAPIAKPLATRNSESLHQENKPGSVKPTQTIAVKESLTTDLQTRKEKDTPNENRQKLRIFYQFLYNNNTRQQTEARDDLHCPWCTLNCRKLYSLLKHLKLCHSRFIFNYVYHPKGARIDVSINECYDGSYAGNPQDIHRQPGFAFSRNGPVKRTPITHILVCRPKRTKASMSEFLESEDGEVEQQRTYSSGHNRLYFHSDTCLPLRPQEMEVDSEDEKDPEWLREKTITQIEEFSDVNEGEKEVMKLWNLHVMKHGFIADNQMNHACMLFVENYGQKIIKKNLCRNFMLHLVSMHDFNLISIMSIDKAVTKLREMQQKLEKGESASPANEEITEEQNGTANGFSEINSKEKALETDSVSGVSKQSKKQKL
# Source text: A trimeric PRC2 complex (EZH2:EED:SUZ12) was employed in this assay, along with a biotinylated-H3 (21–44) peptide substrate. […] Since the peptide substrates used in these assays are poor models for the complex and dynamic structure of the chromatin substrate in cells and since the only minimal number of PRC2 proteins (EZH2:EED:SUZ12) required for enzymatically active EZH2 were employed in the PRC2 assay, care should be taken in the over interpretation of this in vitro inhibitory data.
# EZH2 [5] = conditions: cited from earlier work
# [6] = Homo sapiens, 48 h, normalised against GAPDH, read-out: KRT17 RNA level, fold increase compared to the mock treated sample
# [7] = Homo sapiens, 48 h, normalised against GAPDH, read-out: JMJD3 RNA level, fold increase compared to the mock treated sample
# [8] = MDA-MB-231 (Table 2), read-out: Cell viability (MTT) IC50
# [9] = Homo sapiens, 48 h, normalised against GAPDH, read-out: FBXO32 RNA level, fold increase compared to the mock treated sample
smiles,measurement,setting,value
"COc1cc2nc(N3CCCN(C)CC3)nc(NC3CCN(Cc4ccccc4)CC3)c2cc1OC [BIX01294, reference compound]",IC50,MDA-MB-231 cells [1],1400 nM
same,fold induction at 10 µM,KRT17; [6],1.06
same,fold induction at 10 µM,JMJD3; [7],2.7
same,IC50,MDA-MB-231 cells [2]; [8],9.6 µM
same,fold induction at 10 µM,FBXO32; [9],3.34
same,fold induction at 10 µM,EZH2 [3],0.87
"CCCc1cc(C)[nH]c(=O)c1CNC(=O)c1cc(-c2ccnc(N3CCN(C)CC3)c2)cc2c1cnn2C(C)C [GSK343, reference compound]",IC50,MDA-MB-231 cells [1],> 50000 nM
same,Global levels of H3K27me3 and H3K9me3 (Western),H3K27me3 and H3K9me3,minor decrease
same,fold induction at 10 µM,KRT17; [6],0.9
same,Change in KRT17 mRNA level,KRT17,little change
same,fold induction at 10 µM,JMJD3; [7],1
same,Change in JMJD3 mRNA level,JMJD3,little change
same,IC50,MDA-MB-231 cells [2]; [8],> 15 µM
same,Effect on cell viability,"MDA-MB-231 cells [2]; MDA-MB-231, MTT, up to 15 μM, 48-h treatment and 24-h proliferation period",no significant reduction in cell viability
same,fold induction at 10 µM,FBXO32; [9],1.2
same,Change in FBXO32 mRNA level,FBXO32,little change
same,fold induction at 10 µM,EZH2 [3],1
same,IC50,SC1,12.1 µM
same,IC50,DOHH2,6.15 µM
same,IC50,WILL1,17.9 µM
same,IC50,WSU-FSCLL,2870 nM
same,IC50,SUDLH8,5.11 µM
same,IC50,DB,< 1000 nM
same,Change in SPINK1 mRNA level,SPINK1,little change
COc1cc2nc(NCCCN(C)C)nc(NC3CCN(Cc4ccccc4)CC3)c2cc1OC [HKMTI-1-002],fold induction at 10 µM,KRT17; [6],0.66
same,fold induction at 10 µM,JMJD3; [7],1.57
same,fold induction at 10 µM,FBXO32; [9],1.12
same,fold induction at 10 µM,EZH2 [3],0.86
COc1cc2nc(N3CCN(c4ccccn4)CC3)nc(NC3CCN(Cc4ccccc4)CC3)c2cc1OC [HKMTI-1-011],SPINK1 expression upon treatment,SPINK1,increased
same,IC50,[4],12 µM
COc1cc2nc(N3CCCC(CO)C3)nc(NC3CCN(C)CC3)c2cc1OC (stereo not drawn) [HKMTI-1-012],fold induction at 10 µM,KRT17; [6],1.32
same,fold induction at 10 µM,JMJD3; [7],0.9
same,fold induction at 10 µM,FBXO32; [9],1.06
same,fold induction at 10 µM,EZH2 [3],1.38
COc1cc2nc(N3CCCN(C)CC3)nc(NCc3ccccn3)c2cc1OC [HKMTI-1-013],fold induction at 10 µM,KRT17; [6],0.78
same,fold induction at 10 µM,JMJD3; [7],0.87
same,fold induction at 10 µM,FBXO32; [9],0.93
same,fold induction at 10 µM,EZH2 [3],0.13
COc1cc2nc(N3CCCCC3)nc(NC3CCN(Cc4ccccc4)CC3)c2cc1OC [HKMTI-1-022],SPINK1 expression upon treatment,SPINK1,increased
same,IC50,[4],16 µM
"COc1cc2c(NC3CCN(C(C)C)CC3)nc(C3CCCCC3)nc2cc1OCCCN1CCCC1 [UNC0638, reference compound]",IC50,MDA-MB-231 cells [1],1100 nM
same,Global levels of H3K27me3 and H3K9me3 (Western),H3K27me3 and H3K9me3,minor decrease
same,EZH2 inhibition in biochemical assays,EZH2 [5],not to significantly inhibit EZH2
same,fold induction at 7.5 µM,"KRT17; Homo sapiens, 48 h, MDA-MB-231, single dose 7.5 μM, normalised against GAPDH, read-out: KRT17 RNA level, fold increase compared to the mock treated sample",1.1
same,Change in KRT17 mRNA level,KRT17,not significantly altered
same,fold induction at 7.5 µM,"JMJD3; Homo sapiens, 48 h, MDA-MB-231, single dose 7.5 μM, normalised against GAPDH, read-out: JMJD3 RNA level, fold increase compared to the mock treated sample",3.4
same,Change in JMJD3 mRNA level,JMJD3,dose-dependent upregulation
same,IC50,MDA-MB-231 cells [2]; [8],8.2 µM
same,IC50,"MDA-MB-231 cells [2]; MDA-MB-231, MTT, 48-h treatment and 24-h proliferation period (Fig. 1c), read-out: Cell viability IC50 (calculated)",9 µM
same,fold induction at 7.5 µM,"FBXO32; Homo sapiens, 48 h, MDA-MB-231, single dose 7.5 μM, normalised against GAPDH, read-out: FBXO32 RNA level, fold increase compared to the mock treated sample",5.5
same,Change in FBXO32 mRNA level,FBXO32,dose-dependent upregulation
same,fold induction at 7.5 µM,"EZH2 [3]; MDA-MB-231, single dose 7.5 μM",0.4
same,Change in SPINK1 mRNA level,SPINK1,not significantly altered
COc1cc2c(NC3CCN(C(C)C)CC3)nc(N3CCC(F)(F)CC3)nc2cc1OCCCN1CCCC1 [UNC0642],EZH2 inhibition in biochemical assays,EZH2 [5],not to significantly inhibit EZH2
